Measurements reported in ChEMBL document CHEMBL1201862, “PubChem BioAssay data set” (2004).
Activity calls are given as the source filed them.

Columns and labels:
[1] = molecular target: Eukaryotic translation initiation factor 4E (Mus musculus, UniProt P63073); assay: eIF4E–eIF4G protein interaction inhibitors, dose response, biochemical, TR-FRET (AID 855); assay type: functional;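 also: potency for disrupting eIF4E binding to eIF4GI seen as loss of FRET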
[2] = Luminescence Cell-Based Dose Confirmation HTS to Identify Inhibitors of Platelet Dense Granule Release. [Related pubchem assays: 1663 (Primary HTS), 1678 (Summary of Project)]; assay type: functional
[3] = molecular target: Luciferin 4-monooxygenase (Photinus pyralis, UniProt P08659); assay: firefly luciferase enzyme inhibitors, dose response, biochemical, luminescence (AID 1891)
[4] = molecular target: Induced myeloid leukemia cell differentiation protein Mcl-1 (Homo sapiens, UniProt Q07820); assay type: functional
[5] = cells; assay type: functional
[6] = molecular target: T1, Carboxy-terminal domain RNA polymerase II polypeptide A small phosphatase 1 (Homo sapiens, UniProt Q9GZU7); assay: inhibitors of CTDSP1, concentration-response testing, biochemical assay, absorbance-based, actives from ultra-high-throughput screening (AID 540297); assay type: functional
T1 sequence (Q9GZU7 whole entry): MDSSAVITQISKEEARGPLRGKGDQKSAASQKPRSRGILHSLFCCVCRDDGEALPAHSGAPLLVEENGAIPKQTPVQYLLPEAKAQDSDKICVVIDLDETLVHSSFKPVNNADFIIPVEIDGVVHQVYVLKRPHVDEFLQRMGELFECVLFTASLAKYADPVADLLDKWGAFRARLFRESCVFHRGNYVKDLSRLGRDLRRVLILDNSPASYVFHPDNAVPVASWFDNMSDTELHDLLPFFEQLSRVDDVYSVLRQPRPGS

[7] = NIH-3T3 fibroblast cytotoxicity, dose response, cytotoxicity control, cell-based, fluorescence, Alamar Blue, secondary assay (AID 2327); assay type: functional;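 also: NIH-3T3 mouse fibroblasts cultured with fluconazole at 8 µg/mL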
[8] = C. albicans growth with fluconazole, confirmation, fluorescence, retest (AID 2467); assay type: functional, cell-based
[9] = molecular target: T2, Rac GTPase-activating protein 1 (Homo sapiens, UniProt Q9H0H5); assay: MgcRacGAP GTPase-activating activity inhibitors, confirmation, biochemical, ADP Hunter fluorescence, primary and confirmatory (AID 624330); assay type: functional
T2 sequence (Q9H0H5 whole entry): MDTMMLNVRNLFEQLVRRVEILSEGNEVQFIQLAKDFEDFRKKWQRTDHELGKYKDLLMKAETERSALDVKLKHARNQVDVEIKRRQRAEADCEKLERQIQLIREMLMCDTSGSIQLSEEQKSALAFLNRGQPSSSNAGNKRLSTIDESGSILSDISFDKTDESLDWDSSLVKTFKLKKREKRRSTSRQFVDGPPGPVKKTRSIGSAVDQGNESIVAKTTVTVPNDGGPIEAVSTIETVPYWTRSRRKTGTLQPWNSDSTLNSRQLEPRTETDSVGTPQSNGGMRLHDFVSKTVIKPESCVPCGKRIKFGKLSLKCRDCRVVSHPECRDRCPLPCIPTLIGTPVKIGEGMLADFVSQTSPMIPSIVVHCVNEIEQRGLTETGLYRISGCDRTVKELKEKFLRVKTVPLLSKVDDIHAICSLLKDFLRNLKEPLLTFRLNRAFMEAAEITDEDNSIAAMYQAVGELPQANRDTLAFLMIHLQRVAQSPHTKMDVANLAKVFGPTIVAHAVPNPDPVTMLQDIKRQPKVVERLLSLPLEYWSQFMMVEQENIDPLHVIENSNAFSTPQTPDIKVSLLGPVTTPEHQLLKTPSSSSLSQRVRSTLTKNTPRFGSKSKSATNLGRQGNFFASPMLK

[10] = molecular target: Large T antigen (Simian virus 40, UniProt P03070); assay type: functional, Betapolyomavirus macacae;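 also: Confirmatory-stage PubChem screen for compounds that inhibit SV40 T antigen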
[11] = cytotoxicity toward NIH3T3 fibroblasts, dose response, counter-screen, cell-based, ATP luminescence, mouse fibroblasts (AID 2010); assay type: functional;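 also: cells exposed to compound for about 90 hours before reading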
[12] = inhibitors of intracellular T. cruzi replication, confirmation, NIH3T3 host cells, beta-gal luminescence (AID 2044); assay type: functional, cell-based;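 also: intracellular parasites grown in NIH/3T3 mouse fibroblasts as host cells; luminescent beta-galactosidase reporter signal from transgenic T. cruzi replicating inside host cells; inhibitors lower the luminescence signal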
[13] = test system: Streptococcus sp. 'group A'; assay: growth inhibition of control SK(-) GAS strain, dose response, counter-screen for streptokinase expression inhibitor project, luminescence, kanamycin, BacTiterGlo, confirmation (AID 1900); assay type: functional, organism-based; settings: read-out: EC50
[14] = test system: Streptococcus; assay: Group A Streptococcus viability loss, dose response, counter-screen for streptokinase expression inhibitor project, luminescence, BacTiterGlo (AID 1915); assay type: functional, organism-based;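 also: potency for reduction of bacterial viability or growth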
[15] = inhibitors of SNCA 5'UTR-driven reporter translation, confirmation, H4 neuroglioma cells, luminescence (AID 1988); assay type: functional, cell-based
[16] = inhibitors of firefly luciferase expression or activity, dose response, H4 neuroglioma cells, luminescence (AID 1990); assay type: functional, cell-based
[17] = Luminescence Cell-Based Dose Response HTS to Identify Inhibitors of 5'UTR Stem-Loop Driven Prion Protein mRNA Translation in H4 Neuroglioblastoma Cells. [Related pubchem assays: 1827 (Project Summary), 1813 (Primary HTS)]; assay type: functional
[18] = Shn3 3'UTR reporter inhibitors, dose response, cell-based, Clone20 osteoblasts, firefly luciferase, cherry-picked (AID 624132); assay type: functional;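 also: firefly luciferase luminescence from reporter carrying the Shn3 3'UTR in osteoblasts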
[19] = molecular target: T3, Microphthalmia-associated transcription factor (Homo sapiens, UniProt O75030); assay: TRPM1 promoter luciferase signal decrease, dose response, MITF inhibitor project, cell-based, SK-MEL-5, cherry-picked, set 3 (AID 493073); assay type: functional
T3 sequence (O75030 whole entry): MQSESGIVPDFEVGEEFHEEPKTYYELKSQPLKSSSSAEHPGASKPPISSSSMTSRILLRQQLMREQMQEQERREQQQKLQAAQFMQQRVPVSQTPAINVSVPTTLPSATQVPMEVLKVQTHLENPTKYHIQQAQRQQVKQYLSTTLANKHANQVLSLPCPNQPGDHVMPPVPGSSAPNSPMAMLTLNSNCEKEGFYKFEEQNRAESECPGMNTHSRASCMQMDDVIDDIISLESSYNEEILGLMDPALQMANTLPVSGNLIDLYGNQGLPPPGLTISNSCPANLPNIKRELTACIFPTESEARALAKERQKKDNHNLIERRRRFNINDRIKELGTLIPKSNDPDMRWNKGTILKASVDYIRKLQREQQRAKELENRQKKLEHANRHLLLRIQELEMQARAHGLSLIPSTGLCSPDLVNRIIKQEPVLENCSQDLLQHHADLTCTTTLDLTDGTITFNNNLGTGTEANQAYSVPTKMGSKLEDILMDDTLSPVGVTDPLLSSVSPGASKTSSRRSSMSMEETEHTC

[20] = inhibitors of HIV Env-driven cell fusion, dose response, cherry-pick (AID 652057); assay type: functional, cell-based

Sequence of Induced myeloid leukemia cell differentiation protein Mcl-1 (Q07820 whole entry): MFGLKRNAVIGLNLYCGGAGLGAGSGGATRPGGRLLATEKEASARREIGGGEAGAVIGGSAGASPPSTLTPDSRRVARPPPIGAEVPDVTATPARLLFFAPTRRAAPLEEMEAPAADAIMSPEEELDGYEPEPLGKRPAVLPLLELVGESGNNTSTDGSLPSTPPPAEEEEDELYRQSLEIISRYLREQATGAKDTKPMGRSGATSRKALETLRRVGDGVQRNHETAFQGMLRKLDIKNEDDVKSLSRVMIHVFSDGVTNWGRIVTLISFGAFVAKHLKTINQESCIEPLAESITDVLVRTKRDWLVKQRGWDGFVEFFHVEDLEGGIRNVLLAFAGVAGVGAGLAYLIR
Sequence of Eukaryotic translation initiation factor 4E (P63073 whole entry): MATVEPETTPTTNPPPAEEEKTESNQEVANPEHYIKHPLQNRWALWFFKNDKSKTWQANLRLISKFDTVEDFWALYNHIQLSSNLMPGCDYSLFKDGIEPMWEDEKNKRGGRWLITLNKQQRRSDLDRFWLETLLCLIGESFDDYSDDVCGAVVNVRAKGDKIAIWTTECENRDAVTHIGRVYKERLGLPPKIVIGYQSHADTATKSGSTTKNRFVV
Sequence of Luciferin 4-monooxygenase (P08659 whole entry): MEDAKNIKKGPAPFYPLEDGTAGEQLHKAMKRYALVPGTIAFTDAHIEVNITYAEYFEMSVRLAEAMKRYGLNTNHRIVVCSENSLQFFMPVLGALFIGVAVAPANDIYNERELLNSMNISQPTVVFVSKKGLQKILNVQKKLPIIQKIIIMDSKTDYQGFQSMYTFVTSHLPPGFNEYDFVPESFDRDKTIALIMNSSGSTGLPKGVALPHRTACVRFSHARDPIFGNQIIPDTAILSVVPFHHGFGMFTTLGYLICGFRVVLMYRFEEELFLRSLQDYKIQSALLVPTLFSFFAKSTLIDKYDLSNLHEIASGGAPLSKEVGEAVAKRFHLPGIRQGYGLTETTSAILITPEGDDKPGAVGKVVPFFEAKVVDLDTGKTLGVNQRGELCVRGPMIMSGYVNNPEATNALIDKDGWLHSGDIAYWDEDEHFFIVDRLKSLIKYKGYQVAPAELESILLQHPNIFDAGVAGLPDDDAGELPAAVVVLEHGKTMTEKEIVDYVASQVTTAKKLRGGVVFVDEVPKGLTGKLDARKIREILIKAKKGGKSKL
Sequence of Large T antigen (P03070 whole entry): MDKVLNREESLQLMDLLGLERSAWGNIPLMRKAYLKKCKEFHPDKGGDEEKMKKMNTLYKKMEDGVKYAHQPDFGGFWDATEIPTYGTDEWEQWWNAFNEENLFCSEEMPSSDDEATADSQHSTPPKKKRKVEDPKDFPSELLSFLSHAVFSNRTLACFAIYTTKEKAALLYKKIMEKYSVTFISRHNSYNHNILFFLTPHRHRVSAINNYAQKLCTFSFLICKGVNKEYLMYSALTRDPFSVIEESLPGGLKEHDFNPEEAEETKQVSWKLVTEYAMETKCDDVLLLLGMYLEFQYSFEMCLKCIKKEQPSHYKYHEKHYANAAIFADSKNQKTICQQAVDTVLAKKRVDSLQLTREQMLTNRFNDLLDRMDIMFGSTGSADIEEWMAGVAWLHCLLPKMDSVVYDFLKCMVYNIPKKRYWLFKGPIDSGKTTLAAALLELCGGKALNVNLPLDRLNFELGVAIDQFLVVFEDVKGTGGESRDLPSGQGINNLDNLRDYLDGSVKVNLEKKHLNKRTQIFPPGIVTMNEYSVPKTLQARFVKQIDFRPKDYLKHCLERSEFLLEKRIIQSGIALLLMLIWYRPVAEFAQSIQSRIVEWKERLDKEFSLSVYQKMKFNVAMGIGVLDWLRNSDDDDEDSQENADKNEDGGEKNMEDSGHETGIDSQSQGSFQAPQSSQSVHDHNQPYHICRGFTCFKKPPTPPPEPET

Structure (SMILES): CCOC(=O)c1c(-c2cccc([N+](=O)[O-])c2)csc1NC(=O)CCCOc1ccccc1
- IC50 [1]: > 64 µM (inactive)

Structure (SMILES): CCN1CCN(Cc2nc3c(c(=O)[nH]c(=O)n3C)n2Cc2ccccc2Cl)CC1
- EC50 [2]: 18.6 µM (active)
- EC50 [3]: > 112 µM (not active)

Structure (SMILES): CCCOC(=O)c1ccc(OCC(O)CN2CCN(C(=O)c3ccccc3)CC2)cc1 (stereo unspecified)
- IC50 [1]: > 64 µM (inactive)

Structure (SMILES): COC(=O)[C@@]1(Cc2ccccc2)[C@H]2c3cc(C(=O)N4CCCC4)n(CCSCCO)c3C[C@H]2CN1C(=O)c1ccccc1
- IC50 [4]: 1.87 µM (not active)

Structure (SMILES): COc1cnn(C2CCCCC2)c(=O)c1O
- IC50 [5]: 33.5 µM (active)

Structure (SMILES): COc1cc(NC(=O)c2ccccc2)c(OC)cc1NC(=O)Cc1cccs1
- IC50 [6]: 3.86 µM (active)
- IC50 [1]: 50 µM (inactive)

Structure (SMILES): CC1CCCCN1S(=O)(=O)c1ccc(NC(=O)c2cccc(-n3cnnn3)c2)cc1 (stereo unspecified)
- EC50 [7]: > 150 µM (inactive)

Structure (SMILES): Cc1ccc(S(=O)(=O)CC(C)N2CCOCC2)c(S(=O)(=O)CC(C)N2CCOCC2)c1 (stereo unspecified)
- EC50 [8]: 6.26 µM (active)
- EC50 [7]: > 160 µM (inactive)

Structure (SMILES): Cc1ccc(OC(S)=Nc2ccc(O)cc2)cc1
- IC50 [9]: 31.6 µM (active)
- IC50 [10]: 13 µM (active)

Structure (SMILES): CCCCOC(=O)c1ccc(OC(=O)N2CCOCC2)cc1
- EC50 [2]: > 112 µM (not active)
- EC50 [3]: > 112 µM (not active)

Structure (SMILES): COc1ccc(C(=O)Nc2ccccc2C(N)=O)cc1
- IC50 [1]: > 64 µM (inactive)

Structure (SMILES): CCOC(=O)C1CCN(C(c2ccccn2)c2c(C)[nH]c3ccccc23)CC1 (stereo unspecified)
- EC50 [2]: 16.5 µM (active)
- EC50 [3]: > 112 µM (not active)

Structure (SMILES): O=C1/C(=C\c2ccc(O)c(O)c2)N=C2CCCCCN12
- IC50 [9]: 17.4 µM (active)
- IC50 [10]: 6.68 µM (active)

Structure (SMILES): O=[N+]([O-])c1ccc(CN2CCN(c3ccc(Cl)cc3)CC2)o1
- IC50 [5]: < 0.1 µM (active)
- EC50 [11]: > 60 µM (not active)
- EC50 [12]: 0.758 µM (active)

Structure (SMILES): O=C(c1ccc([N+](=O)[O-])cc1)c1cc2ccc(O)cc2oc1=O
- IC50 [6]: 10.8 µM (active)

Structure (SMILES): Cc1ccc2nc(N3C(=O)C(O)=C(C(=O)c4cc5ccccc5o4)C3c3cccs3)sc2c1 (stereo unspecified)
- EC50 [13]: 1.39 µM (active)
- IC50 [4]: 2.37 µM (active)
- EC50 [14]: 7.6 µM (active)

Structure (SMILES): CCOC(=O)c1cc2cc(OC)ccc2nc1C
- EC50 [2]: > 112 µM (not active)
- EC50 [3]: > 112 µM (not active)

Structure (SMILES): C[C@@H](O)C1NC(=O)[C@H](CCCCN)NC(=O)c2cc([N+](=O)[O-])cc(I)c2NCCC[C@@H](C(N)=O)NC1=O (stereo partly specified)
- IC50 [1]: > 64 µM (inactive)

Structure (SMILES): O=C(CCS(=O)(=O)c1cccc2nsnc12)NCc1ccccc1Cl
- IC50 [1]: > 64 µM (inactive)

Structure (SMILES): CC(C)c1cc(C(=O)Nc2cccc(Cl)c2)no1
- IC50 [1]: > 64 µM (inactive)

Structure (SMILES): COc1ccc2c(c1OC)C(=O)N1c3ccccc3C(=O)N(c3ccccc3F)C21 (stereo unspecified)
- EC50 [15]: 12 µM (active)
- EC50 [16]: > 120 µM (not active)
- EC50 [17]: 13.1 µM (active)
- AC50 [18]: 11.6 µM (active)

Structure (SMILES): COc1ccc2[nH]c(=O)c(CN(CCN3CCCC3)C(=O)Nc3ccccc3Cl)cc2c1
- IC50 [1]: > 64 µM (inactive)

Structure (SMILES): CCc1n[nH]c(SCC(=O)Nc2ccc(N(C)C)cc2)n1
- IC50 [10]: 15.5 µM (active)

Structure (SMILES): CCCCC(=O)Nc1ccc2oc(-c3ccncc3)nc2c1
- IC50 [1]: > 64 µM (inactive)

Structure (SMILES): COc1cc(Cn2nnc3ccccc32)ccc1O
- IC50 [10]: 7.55 µM (active)

Structure (SMILES): O=C1NC(=O)C(=Cc2ccc(-c3ccc(Cl)cc3)o2)C(=O)N1
- IC50 [5]: > 50 µM (active)
- AC50 [19]: 9.2 µM (active)

Structure (SMILES): CC(=O)Oc1c(C(=O)c2nnc(C)o2)c(=O)n(Cc2ccccc2)c2ccccc12
- AC50 [19]: 6.98 µM (active)

Structure (SMILES): O=C(CCS(=O)(=O)c1ccc(Br)cc1)NCc1ccc(F)cc1
- IC50 [6]: 7.9 µM (active)

Structure (SMILES): CC(C)(C)NC(=O)CCN(/N=C/c1ccc([N+](=O)[O-])o1)C1=NS(=O)(=O)c2ccccc21
- AC50 [19]: 7.18 µM (active)

Structure (SMILES): Cc1ccc(S(=O)(=O)Nc2ccc3c(c2)CC(=O)N([C@@H](C)CO)C[C@H](C)[C@@H](CN(C)Cc2ccc(-c4ccccc4)cc2)O3)cc1
- AC50 [20]: 20.2 µM (active)

Structure (SMILES): COc1ccc(C(=O)NC(=O)Nc2cc(C)ccn2)cc1
- AC50 [19]: 4.96 µM (active)
- EC50 [15]: 0.367 µM (active)
- EC50 [16]: 1.67 µM (active)
- EC50 [17]: 0.533 µM (active)

Structure (SMILES): O=C1c2ccccc2C(=O)N1/N=C/c1ccc(O)c(O)c1O
- IC50 [4]: 2.28 µM (active)

Structure (SMILES): CCn1c(C)nc2cc(C(=O)N/N=C/c3ccc(OC)c(O)c3)ccc21
- IC50 [9]: 80 µM (active)
- IC50 [10]: 4.76 µM (active)

Structure (SMILES): COc1cc(/C=N/NC2=NC(=O)C(CC(=O)O)S2)ccc1OCc1ccc(Cl)cc1 (stereo unspecified)
- IC50 [6]: 12.4 µM (active)

Structure (SMILES): O=C(Oc1ccc(/C=N/O)cc1)c1ccccc1Cl
- IC50 [5]: 22.6 µM (active)

Structure (SMILES): CSc1ccc(/C=N/NC(=O)c2ccc(C)c(C)c2)cc1
- IC50 [6]: 9.17 µM (active)
